Experimental data reported in patent publication US20220142958A1, “MEDICINAL COMPOSITION HAVING EXCELLENT STABILITY” (EA Pharma Co., Ltd., priority 2019, published 2022).

Key:
[1] = tested on: serum iPTH concentration; experiment: Serum iPTH concentration in bilaterally nephrectomized rats after single intravenous administration; assay type: in vivo, rat
Description: After quarantine and acclimatization periods of 6 days, fifty-one rats (Crl: CD (SD), male) aged 7 weeks were fed a 100% sucrose diet ad libitum from four days before the surgery. On the day of the surgery, skin incisions were made on the back at the sites of the right and left kidneys under isoflurane anesthesia and the renal capsules were removed to ligate the renal arteries and veins and the ureters using threads before removing the right and left kidneys. A penicillin solution was given upon suturing, and 5 mL of physiological saline was intraperitoneally administered before returning the rats into the breeding cages.
On the day of administering the test substance, for example, a day after the bilaterally nephrectomy, approximately 100 μL of blood was collected from the tail vein without anesthesia using a capillary tube, which was centrifuged in a high speed refrigerated microcentrifuge (10,000 rpm, 5 min, 4° C.) to separate the serum. Thereafter, the serum Ca concentration was measured with a dri-chemanalyzer (model number: FUJI DRI-CHEM 7000, manufacturer: FUJI FILM Medical Co., Ltd.) to select individuals with a serum Ca concentration of 8.0 mg/dL or more and less than 14.0 mg/dL.
On a day after the bilaterally nephrectomy, the given doses were calculated based on the weight of the selected animals on that day. Group 1 was given a medium (physiological saline), Groups 2, 3 and 4 were given the Compound A1 solution (0.3, 3 and 30 mg/mL, respectively), and Groups 5, 6, 7 and 8 (5 rats per group) were given the comparative compound (0.3, 1, 3 and 10 mg/mL, respectively), each given a single dose of 1 ml/kg from the tail vein. Prior to the administration (0 hours), and 24 and 48 hours after the administration, approximately 300 μL of blood was collected without anesthesia from the tail vein using capillary tubes for obtaining the serum. The blood for obtaining the serum was left to stand at room temperature, and centrifuged in a high speed refrigerated microcentrifuge (10,000 rpm, 5 min, 4° C.) within a period of 30 minutes to 2 hours after the blood collection to collect the serum.
Thereafter, the serum Ca was analyzed with COBAS analyzer (Model number: COBAS INTEGRA 400 plus, manufacturer: Roche Diagnostics K.K.), and the remaining serum was stored in an ultra-low freezer (temperature set to −80±15° C.) until the day of iPTH measurement. On the day of iPTH measurement, the serum was melted at room temperature for measurement.
A 30 mg/ml Compound A1 solution ([…] of Compound A1 dissolved in 10 ml of physiological saline) was diluted with physiological saline to prepare 0.3 mg/ml and […] Compound A1 solutions.
149 mg of etelcalcetide (Ac-c(C) arrrar-NH2) TFA salt (WO 2011/014707 A) was prepared to have pH of 6 to 8 with 7 ml of physiological saline and a 0.5N aqueous NaOH solution, and physiological saline was further added thereto to make 10 ml. The prepared 10 mg/ml comparative compound solution was diluted with physiological saline to obtain 0.3 mg/ml and 1 mg/ml comparative compound solutions.

[2] = tested on: healthy Japanese male adults; experiment: Phase I clinical trial (P1), single intravenous dose; assay type: in vivo, human
Description: Thirty-two healthy Japanese male adults were given a single intravenous dose of the test drug (Compound A1) at 0.01 mg, 0.1 mg, 1.0 mg or 2.5 mg in a fasted state to study the pharmacokinetics, pharmacodynamics and safety by a double-blind test using a placebo as a control. Here, the trial drug was administered by diluting a required dose taken from the Compound A1 vial formulation prepared as follows with sterilized water for injection, and filling a syringe with the resultant in accordance with the dose to be administered.
A vial formulation encapsulating 100 mg of Compound A1 in terms of a dehydrate, and sodium chloride, disodium hydrogen phosphate dodecahydrate, and sodium dihydrogen phosphate dihydrate as additives in 10 ml of sterilized water for injection

[3] = tested on: SHPT patients on maintenance hemodialysis; experiment: Phase I/II clinical trial, single administration; assay type: in vivo, human; details: for percentage decrease in the serum iPTH concentration: 66 hours after the administration
Description: Targeting SHPT patients on maintenance hemodialysis, pharmacokinetics, pharmacodynamics and safety upon single or repeated intravenous administration of Compound A1 were examined by conducting a double-blind test using a placebo as a control.
Single administration: Based on the clinically effective dose calculated in Reference Example 5, the doses were given at 0.025 mg, 0.05 mg, 0.1 mg, 0.2 mg, 0.4 mg, 0.6 mg, and 0.8 mg (7 steps). On the day of trial drug administration, the trial drug was intravenously administered as slow as possible within 60 seconds 2 to 4 hours following the end of dialysis. Here, the trial drug was administered by diluting a required dose taken from the Compound A1 vial formulation prepared as follows with sterilized water for injection, and filling a syringe with the resultant in accordance with the dose to be administered.
Each item was evaluated according to the predetermined evaluation schedule.
A vial formulation encapsulating 1 mg of Compound A1 in terms of a dehydrate, and sodium chloride, disodium hydrogen phosphate dodecahydrate, and sodium dihydrogen phosphate dihydrate as additives in 10 ml of sterilized water for injection

[4] = single intravenous doses of 0.01, 0.1, 1.0 and 2.5 mg

SMILES: Cc1c(Cl)cc(S(=O)(=O)[O-])cc1NC(=O)NC[C@H](N)C(=O)O.[Na+] [Compound A1, sodium 3-{[(2S)-2-amino-2-carboxyethyl]carbamoylamino}-5-chloro-4-methylbenzenesulfonate]
- mean serum iPTH concentration ([1]; 0.3 mg/kg single i.v., 24 hours after the administration): 140 pg/mL
- mean serum iPTH concentration ([1]; 0.3 mg/kg single i.v., 48 hours after the administration): 338 pg/mL
- mean serum iPTH concentration ([1]; 3 mg/kg single i.v., 24 hours after the administration): 138 pg/mL
- mean serum iPTH concentration ([1]; 3 mg/kg single i.v., 48 hours after the administration): 280 pg/mL
- mean serum iPTH concentration ([1]; 30 mg/kg single i.v., 24 hours after the administration): 118 pg/mL
- mean serum iPTH concentration ([1]; 30 mg/kg single i.v., 48 hours after the administration): 245 pg/mL
- EC50 ([1]; Rattus norvegicus, iv, plasma concentration, rats, read-out: 50% effective concentration, EC50 value, for decreasing the serum iPTH concentration): 0.075 µg/mL
- lower limit value of the serum iPTH concentration (simulated) ([1]; logistic curve fitting, 48 hours after the administration vs given dose): 203.0 pg/mL
- decrease of serum iPTH and Ca concentrations ([1]; renal failure rat models, during 48 hours after the administration, relation to dose): sufficiently decreased during the 48 hours after the administration but the decreases were gradual with respect to the increase in the dose
- serum iPTH concentration compared to that before the administration ([2]; 0.01 mg and higher dose groups): decreased
- safety (side effects) ([2]; 1.0 mg and higher dose groups): non-severe and mild side effects such as vomiting
- duration of decreased serum iPTH concentration ([2]; relation to given dose): extended with the increase in the given dose
- form excreted into the urine ([2]; single intravenous doses): mostly as unchanged substances
- main elimination pathway of the unchanged substance ([2]; single intravenous doses): renal excretion
- elimination from the plasma [2, 4]: rapidly eliminated
- form present in the plasma [2, 4]: generally unchanged substances
- percentage decrease in the serum iPTH concentration ([3]; 0.025 mg dose group): 27%
- percentage decrease in the serum iPTH concentration ([3]; 0.05 mg dose group): 48%
- percentage decrease in the serum iPTH concentration ([3]; 0.1 mg dose group): 44%
- percentage decrease in the serum iPTH concentration ([3]; 0.2 mg dose group): 57%
- percentage decrease in the serum iPTH concentration ([3]; 0.4 mg dose group): 78%
- percentage decrease in the serum iPTH concentration ([3]; 0.6 mg dose group): 69%
- percentage decrease in the serum iPTH concentration ([3]; 0.8 mg dose group): 66%
- time the serum iPTH lowering effect continued after the administration ([3]; single administration, just before the dialysis): up to 66 hours
- vomiting ([3]; single administration, observed in the 0.4 mg and higher dose groups): non-severe and mild
- nausea ([3]; single administration, observed in the 0.6 mg and higher dose groups): non-severe and mild
- Cmax and AUC in plasma ([3]; single i.v. 0.025 to 0.8 mg, relation to dose): increased with the increase in the given dose
